# Data from PubChem BioAssay AID588780 (Sanford-Burnham Center for Chemical Genomics, 2011).
# pIC50: −log10 of the molar value. Activity calls are given as the source filed them.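 The calls were made as follows: active = compounds whose fitted half-maximal concentration in the cell-protection dose series is at or below a set limit; inactive = the rest.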
# System: H9c2 cardiomyocytes, 2-deoxyglucose stress, ATP luminescence, 2 h
# Test: H9c2 cell survival under 2-deoxyglucose stress – uHTS hits, dose response (AID 588780)
SMILES,pIC50,IC50
O=S(=O)(c1ccccc1)N1CCN(c2nc(-c3cccnc3)nc3ccccc23)CC1,4.91,–
COc1cc(-c2cnc3c(NC=O)cc(-c4cccc(NC(C)=O)c4)cn23)cc(OC)c1OC,–,> 79 µM (inactive)
O=C(N/N=C\c1ccccn1)c1cccc(C(=O)N/N=C\c2ccccn2)n1,–,36 µM (inactive)
Cc1ccc(N2C(=O)CS/C2=C(\C(Cl)=C(Cl)Cl)[N+](=O)[O-])cc1,–,> 79 µM (inactive)
COc1cc(-c2cc3nc(NCCOc4ccccc4)ccn3n2)cc(OC)c1OC,4.86,–
O=C(COc1cccc(F)c1)Nc1nc(-c2ccccn2)cs1,–,30.9 µM (inactive)
c1ccc(-c2oc3ncnc(NCCN4CCOCC4)c3c2-c2ccccc2)cc1,4.63,–
CCOC(=O)COc1ccc2c3c(c(=O)oc2c1)CCCC3,–,> 79 µM (inactive)
COc1ccc(/C=N/NC(=O)c2ccc(COc3cccc4cccnc34)cc2)cc1OC,–,> 79 µM (inactive)
CS(=O)(=O)c1ccc(-c2cnc3c(NC=O)cc(-c4ccsc4)cn23)cc1,–,> 79 µM (inactive)
NC(=O)c1ccccc1N=Cc1ccccn1,–,> 79 µM (inactive)
CC(OC(=O)c1cc(-c2cccnc2)nc2ccccc12)C(=O)Nc1ccc2ccccc2c1 (centres undefined),4.96,–
O=c1oc(-c2ccco2)nc2c1cnn2-c1ccccc1,–,> 79 µM (inactive)
c1ccc(-c2nn3c(-c4ccco4)nnc3s2)nc1,–,43.9 µM (inactive)
O=c1[nH]nc(Cc2ccccc2)c2ccccc12,–,> 79 µM (inactive)
O=c1[nH]c(N2CCN(c3ccccc3)CC2)nc2c1CCCC2,–,> 79 µM (inactive)
COc1ccc(NC(=O)N(C)[C@H]2C[C@H]3c4[nH]c5ccc(-c6ccc7c(c6)OCO7)cc5c4CCN3C[C@H]2[C@H](C)O)cc1,–,> 79 µM (inactive)
O=c1c2ccccc2nc2c3ccccc3c(NCCO)nn12,–,45.5 µM (inactive)
COc1ccc(OC)c(Nc2nc(N)c([N+](=O)[O-])c(N3CCOCC3)n2)c1,4.68,–
CCOC(=O)c1ccc(NC(=O)c2nc[nH]c2C(=O)NCCCCCNC(=O)OC(C)(C)C)cc1,5.24,–

SMILES,pIC50,IC50
Nc1c(C(=O)NC2CCCC2)c2nc3ccccc3nc2n1N,–,> 79 µM (inactive)
O=c1[nH]cnc2sc3c(c12)CCC3,–,> 79 µM (inactive)
COc1cccc(C(=O)Nc2nnc(-c3ccc(Cl)cc3)o2)c1,4.83,–
O=C(COC(=O)c1ccccc1C(=O)OCC(=O)NCCc1c[nH]c2ccccc12)NCCc1c[nH]c2ccccc12,–,> 79 µM (inactive)
COc1ccc(-c2cc(C(=O)N(C)Cc3nc4ccccc4c(=O)[nH]3)c3ccccc3n2)cc1OC,–,> 79 µM (inactive)
NC(=O)c1cccc2c1C(=O)N(C1CCCCC1)C2,–,> 79 µM (inactive)
CNS(=O)(=O)c1ccc2nc(NC(=O)/C=C/c3ccco3)sc2c1,–,> 79 µM (inactive)
COc1cc(C(=O)Nc2nc(-c3cccs3)cs2)cc(OC)c1OC,5.14,–
Cn1c(C(=O)NCCc2ccsc2)cc2c(=O)n(C)c3ccccc3c21,–,> 79 µM (inactive)
COc1cccc(NC(=O)CN(C)C(=O)Cc2n[nH]c(=O)c3ccccc23)c1,–,> 79 µM (inactive)
CCOCCn1ccc2c(OCC(=O)Nc3cc(OC)ccc3OC)cccc2c1=O,–,> 79 µM (inactive)
Cc1cccc(NC(=O)COc2cccc3c2CCNC3=O)c1,–,> 79 µM (inactive)
Oc1c(Br)cc(Br)cc1C=Nc1ccc2c(c1)OCCO2,4.61,–
O=C(COc1ccc([N+](=O)[O-])cc1)Nc1nc(-c2ccccn2)cs1,–,> 79 µM (inactive)
Cc1sc2nc(CSCC(=O)N(C)CC(=O)Nc3ccc(F)cc3)[nH]c(=O)c2c1C,–,> 79 µM (inactive)
CC1CN(c2nn3c(=O)c4ccccc4nc3c3ccccc23)CC(C)O1 (centres undefined),–,> 79 µM (inactive)
NC(=O)c1ccccc1OCC(=O)NC12CC3CC(CC(C3)C1)C2,–,> 79 µM (inactive)
COc1cc(/C=N/NC(=O)c2cccnc2)ccc1OCC(=O)Nc1ccccc1Cl,–,> 79 µM (inactive)
COc1cc(/C=N/NC(=O)NC23CC4CC(CC(C4)C2)C3)ccc1OCC(N)=O,–,> 79 µM (inactive)
